We go through 16 compounds from patent publication US20240317708A1, “INHIBITORS OF TRANSGLUTAMINASES” (ZEDIRA GMBH, priority 2021, published 2024).

Broadly, the IC50 is the midpoint of a concentration-inhibition curve. What is called logD is lipophilicity at a set pH, counting ionised and neutral species. Read a low logD as lower lipophilicity. Broadly, the Papp is the rate of passage across a membrane or cell layer, normalised by area and donor concentration. High values mean fast passage, low ones slow passage.

Data set [1] has as its target T1, recombinant human transglutaminase 2 (Homo sapiens, UniProt P21980).
T1 construct: purchased Zedira T022
T1 sequence (P21980 1-687): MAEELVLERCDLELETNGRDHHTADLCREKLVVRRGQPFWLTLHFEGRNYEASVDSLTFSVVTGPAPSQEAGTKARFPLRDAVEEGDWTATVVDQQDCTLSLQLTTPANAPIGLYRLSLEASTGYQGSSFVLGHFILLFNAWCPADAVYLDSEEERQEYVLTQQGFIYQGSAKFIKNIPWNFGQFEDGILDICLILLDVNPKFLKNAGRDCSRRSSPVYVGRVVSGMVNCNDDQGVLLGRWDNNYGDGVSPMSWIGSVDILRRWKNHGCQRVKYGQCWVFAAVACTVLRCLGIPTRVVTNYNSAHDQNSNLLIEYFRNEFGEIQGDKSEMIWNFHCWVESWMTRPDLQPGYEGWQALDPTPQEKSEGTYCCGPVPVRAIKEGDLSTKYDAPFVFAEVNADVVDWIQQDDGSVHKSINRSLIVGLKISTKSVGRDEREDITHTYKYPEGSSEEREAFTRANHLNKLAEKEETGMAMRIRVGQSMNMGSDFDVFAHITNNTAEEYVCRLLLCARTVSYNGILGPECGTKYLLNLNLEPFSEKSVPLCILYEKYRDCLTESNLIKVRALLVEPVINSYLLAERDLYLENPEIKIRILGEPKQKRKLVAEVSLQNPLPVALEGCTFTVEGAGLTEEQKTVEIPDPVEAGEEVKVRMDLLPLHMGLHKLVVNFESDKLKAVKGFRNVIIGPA
In words: Transglutaminase assay (dansylcadaverine incorporation into dimethylcasein, DCC-assay). The data set is classed as biochemical. To be noted: for IC50: recombinant human TG2 10 nM, dansylcadaverine/dimethylcasein, 37° C. The procedure, abridged:
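IC50 derived from fluorescence slope between 20 and 30 min (λex 330 nm, λem 500 nm, 37 °C), expressed relative to a 2% DMSO control. Reaction: 10 nM recombinant human TG2, 4 μM dimethylcasein, 16.7 μM dansylcadaverine, 10 mM CaCl2 and glutathione, pH 8.0.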

Data set [2] in a line: Log D shake flask method (octanol / PBS pH 7.4, HPLC). Type of data set: physicochemical. To be noted: octanol/phosphate-buffered saline (PBS); octanol / PBS pH 7.4, shake flask. The method, then:
In order to classify the inventive compounds according to their lipophilicity, Log D values (distribution coefficient) were determined by means of the well-established shake flask method, measuring the partition of a compound between an octanol and phosphate-buffered saline (PBS, pH 7.4) by HPLC.

The nature of data set [3]: Caco-2 permeability assay (CacoReady kit). To be noted: human. Type of data set: in vitro ADME. The procedure, abridged:
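Apparent permeability coefficients (Papp) were measured across Caco-2 cell barriers using a ready-to-use kit run per the supplier's protocol. Values serve as a predictor of oral/intestinal bioavailability.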
A general note: Passage across Caco-2 layers is used to estimate intestinal permeability.

As for `COC(=O)/C=C/CC[C@H](NC(=O)c1cc2ccc(N(C)C)cc2o1)C(=O)Nc1cccn(CC(=O)NC23CC(C2)C3)c1=O` [III-161, (S,E)-methyl 7-(1-(2-(bicyclo[1.1.1]pentan-1-ylamino)-2-oxoethyl)-2-oxo-1,2-dihydropyridin-3-ylamino)-6-(6-(dimethylamino)benzofuran-2-carboxamido)-7-oxohept-2-enoate], the IC50 in data set [1] is 250 to 1500 nM. The same compound yielded a logD in data set [2] of 1 to 3. Moreover, in data set [3], the Papp is less than 1 ×10⁻⁶ cm/s.
`COC(=O)/C=C/CC[C@H](NC(=O)c1cnc(NC(C)=O)s1)C(=O)Nc1cccn(CC(=O)NC23CC(C2)C3)c1=O` [III-162, (S,E)-methyl 6-(2-acetamidothiazole-5-carboxamido)-7-(1-(2-(bicyclo[1.1.1]pentan-1-ylamino)-2-oxoethyl)-2-oxo-1,2-dihydropyridin-3-ylamino)-7-oxohept-2-enoate]: in data set [1], the IC50 was in the range of 250 to 1500 nM. The same compound gave a logD in data set [2] of less than 1. For the same compound, in data set [3], the Papp is less than 1 ×10⁻⁶ cm/s.
Take `COC(=O)/C=C/CC[C@H](NC(=O)c1c[nH]c(C(N)=O)c1)C(=O)Nc1cccn(CC(=O)NC23CC(C2)C3)c1=O` [III-163, (S,E)-methyl 7-(1-(2-(bicyclo[1.1.1]pentan-1-ylamino)-2-oxoethyl)-2-oxo-1,2-dihydropyridin-3-ylamino)-6-(5-carbamoyl-1H-pyrrole-3-carboxamido)-7-oxohept-2-enoate]: in data set [1], the IC50 is 250 to 1500 nM. Also, the logD in data set [2] was less than 1. Further, the apparent permeability (Papp) in data set [3] is less than 1 ×10⁻⁶ cm/s.
As for `COC(=O)/C=C/CC[C@H](NC(=O)c1coc(S(N)(=O)=O)c1)C(=O)Nc1cccn(CC(=O)NC2C3CC4CC2CC(NC(C)=O)(C4)C3)c1=O` (stereo partly drawn) [III-164, (S,E)-methyl 7-(1-(2-(1-acetylamino-4-aminoadamantane)-2-oxoethyl)-2-oxo-1,2-dihydropyridin-3-ylamino)-7-oxo-6-(5-sulfamoylfuran-3-carboxamido)hept-2-enoate], the IC50 in data set [1] was 250 to 1500 nM. In data set [2], this compound had a logD of less than 1. Further, the apparent permeability coefficient (Papp) in data set [3] was less than 1 ×10⁻⁶ cm/s.
As for `COC(=O)/C=C/CC[C@H](NC(=O)c1ccc2occc2c1)C(=O)Nc1cccn(CC(=O)NC2C3CC4CC2CC(NC(C)=O)(C4)C3)c1=O` (stereo partly drawn) [III-165, (S,E)-methyl 6-(benzofuran-5-carboxamido)-7-(1-(2-(1-acetylamino-4-aminoadamantane)-2-oxoethyl)-2-oxo-1,2-dihydropyridin-3-ylamino)-7-oxohept-2-enoate], the IC50 in data set [1] lay in the range of 25 to 250 nM. The same compound displayed a logD in data set [2] of 1 to 3. Further, the Papp in data set [3] is less than 1 ×10⁻⁶ cm/s.
As to `COC(=O)/C=C/CC[C@H](NC(=O)c1ccc2ccoc2c1)C(=O)Nc1cccn(CC(=O)NC2C3CC4CC2CC(C(N)=O)(C4)C3)c1=O` (stereo partly drawn) [III-166, (S,E)-methyl 6-(benzofuran-6-carboxamido)-7-(1-(2-(4-aminoadamantane-1-carboxamide)-2-oxoethyl)-2-oxo-1,2-dihydropyridin-3-ylamino)-7-oxohept-2-enoate], in data set [1], the IC50 is 25 to 250 nM. The log distribution coefficient (logD) in data set [2] lay within 1 to 3. The compound also gave a Papp in data set [3] of less than 1 ×10⁻⁶ cm/s.
As for `COC(=O)/C=C/CC[C@H](NC(=O)c1nc(C2(C)CC2)no1)C(=O)Nc1cccn(CC(=O)NC2C3CC4CC2CC(C(N)=O)(C4)C3)c1=O` (stereo partly drawn) [III-167, (S,E)-methyl 7-(1-(2-(4-aminoadamantane-1-carboxamide)-2-oxoethyl)-2-oxo-1,2-dihydropyridin-3-ylamino)-6-(3-(1-methylcyclopropyl)-1,2,4-oxadiazole-5-carboxamido)-7-oxohept-2-enoate], the IC50 in data set [1] is 250 to 1500 nM. In data set [2], this compound returned a logD of less than 1. For the same compound, the Papp in data set [3] was less than 1 ×10⁻⁶ cm/s.
As for `COC(=O)/C=C/CC[C@H](NC(=O)c1noc(C)n1)C(=O)Nc1cccn(CC(=O)NC23CC(C2)C3)c1=O` [III-168, (S,E)-methyl 7-(1-(2-(bicyclo[1.1.1]pentan-1-ylamino)-2-oxoethyl)-2-oxo-1,2-dihydropyridin-3-ylamino)-6-(5-methyl-1,2,4-oxadiazole-3-carboxamido)-7-oxohept-2-enoate], the IC50 in data set [1] lay in the range of 250 to 1500 nM. In addition, the logD in data set [2] is less than 1. The Papp in data set [3] is less than 1 ×10⁻⁶ cm/s.
Regarding `COC(=O)/C=C/CC[C@H](NC(=O)c1csnn1)C(=O)Nc1cccn(CC(=O)NC23CC(C2)C3)c1=O` [III-169, (S,E)-methyl 7-(1-(2-(bicyclo[1.1.1]pentan-1-ylamino)-2-oxoethyl)-2-oxo-1,2-dihydropyridin-3-ylamino)-7-oxo-6-(1,2,3-thiadiazole-4-carboxamido)hept-2-enoate], the 50% inhibitory concentration (IC50) in data set [1] is 25 to 250 nM. The same compound displayed a logD in data set [2] of less than 1. In data set [3], this compound came in with a Papp of less than 1 ×10⁻⁶ cm/s.
Take `COC(=O)/C=C/CC[C@H](NC(=O)c1ncns1)C(=O)Nc1cccn(CC(=O)NC23CC(C2)C3)c1=O` [III-170, (S,E)-methyl 7-(1-(2-(bicyclo[1.1.1]pentan-1-ylamino)-2-oxoethyl)-2-oxo-1,2-dihydropyridin-3-ylamino)-7-oxo-6-(1,2,4-thiadiazole-5-carboxamido)hept-2-enoate]: the IC50 in data set [1] was 25 to 250 nM. Besides, in data set [2], the logD was less than 1. Moreover, in data set [3], the Papp was less than 1 ×10⁻⁶ cm/s.
Take `COC(=O)/C=C/CC[C@H](NC(=O)c1nncs1)C(=O)Nc1cccn(CC(=O)NC23CC(C2)C3)c1=O` [III-171, (S,E)-methyl 7-(1-(2-(bicyclo[1.1.1]pentan-1-ylamino)-2-oxoethyl)-2-oxo-1,2-dihydropyridin-3-ylamino)-7-oxo-6-(1,3,4-thiadiazole-2-carboxamido)hept-2-enoate]: the IC50 in data set [1] lay within 25 to 250 nM. Moreover, the logD in data set [2] was less than 1. The Papp in data set [3] is less than 1 ×10⁻⁶ cm/s.
As for `COC(=O)/C=C/CC[C@H](NC(=O)c1snnc1C1CC1)C(=O)Nc1cccn(CC(=O)NC23CC(C2)C3)c1=O` [III-172, (S,E)-methyl 7-(1-(2-(bicyclo[1.1.1]pentan-1-ylamino)-2-oxoethyl)-2-oxo-1,2-dihydropyridin-3-ylamino)-6-(4-cyclopropyl-1,2,3-thiadiazole-5-carboxamido)-7-oxohept-2-enoate], in data set [1], the IC50 is 25 to 250 nM. This compound yielded a logD in data set [2] of less than 1. Further, the Papp in data set [3] was less than 1 ×10⁻⁶ cm/s.
In the case of `COC(=O)/C=C/CC[C@H](NC(=O)c1cnsn1)C(=O)Nc1cccn(CC(=O)NC23CC(C2)C3)c1=O` [III-173, (S,E)-methyl 7-(1-(2-(bicyclo[1.1.1]pentan-1-ylamino)-2-oxoethyl)-2-oxo-1,2-dihydropyridin-3-ylamino)-7-oxo-6-(1,2,5-thiadiazole-3-carboxamido)hept-2-enoate], the IC50 in data set [1] was in the range of 25 to 250 nM. Also, the logD in data set [2] was less than 1. The compound further returned a Papp in data set [3] of less than 1 ×10⁻⁶ cm/s.
On to `COC(=O)/C=C/CC[C@H](NC(=O)c1snnc1C=O)C(=O)Nc1cccn(CC(=O)NC2(C(=O)O)C3CC4CC2CC(C(F)(F)F)(C4)C3)c1=O` (stereo partly drawn) [III-174, (S,E)-methyl 6-(4-formyl-1,2,3-thiadiazole-5-carboxamido)-7-(1-(2-(2-carboxy-2-amino-5-(trifluoromethyl)adamantane)-2-oxoethyl)-2-oxo-1,2-dihydropyridin-3-ylamino)-7-oxohept-2-enoate], for which the IC50 in data set [1] fell in the range of 250 to 1500 nM. Also, the logD in data set [2] was 1 to 3. The Papp in data set [3] is less than 1 ×10⁻⁶ cm/s.
With `COC(=O)/C=C/CC[C@H](NC(=O)c1snnc1CO)C(=O)Nc1cccn(CC(=O)NC2C3CC4CC(C3)CC2C4)c1=O` (stereo partly drawn) [III-175, (S,E)-methyl 6-(4-(hydroxymethyl)-1,2,3-thiadiazole-5-carboxamido)-7-(1-(2-(2-adamantylamino)-2-oxoethyl)-2-oxo-1,2-dihydropyridin-3-ylamino)-7-oxohept-2-enoate], in data set [1], the IC50 is 250 to 1500 nM. Further, the pH-dependent lipophilicity (logD) in data set [2] fell in the range of 1 to 3. In data set [3], the apparent permeability coefficient (Papp) was less than 1 ×10⁻⁶ cm/s.
`COC(=O)/C=C/CC[C@H](NC(=O)c1cccnc1)C(=O)Nc1cccn(CC(=O)NCCc2ccccc2)c1=O` [Ref. 5, reference compound]: the “times less potent in comparison to compound III-83” value in data set [1] (IC50 ratio vs III-83, Table 1) was “more than 25 times”. Also, in data set [1], the IC50 lay within 250 to 1500 nM. Moreover, in data set [2], the logD lay within 1 to 3. In addition, the Papp in data set [3] was less than 1 ×10⁻⁶ cm/s.
